Data: US20070197562A1, “Remedies for prostatic hypertrophy” (Yokohama TLO Company, Ltd., priority 2004, published 2007)

Columns and labels:
F-1 cells = experiment: IL-6 secretion by primary-cultured F-1 cells (CLEIA); format: cell-based, human; settings: AII (10 μM)+CV 10 μM; 24 hours; P<0.03 vs AII (10 μM)
Description: The primary-cultured stromal cells (F-1 cells) derived from a patient with prostatic hypertrophy were prepared as described below.
Tissues obtained from the patient were placed in a 50 mL centrifuge tube containing 20 mL of a medium (RPMI 1640, GIBCO 11835-030) supplemented with 10% (V/V) FBS (filtron) and mg/mL penicillin/streptomycin (GIBCO 15140-122), and allowed to stand at 4° C. for 1 hour or longer. Subsequently, the tissues were placed in a 10-cm dish, and cut into pieces of about 1 mm square. Blood vessels and the like were removed. At that time, to remove excessive blood (if necessary), the tissues were washed by adding 20 mL of the medium and centrifuging the mixture for 5 minutes at 1,000 rpm, followed by aspiration of the supernatant. […]
PrSC cells prepared in the same manner as Example 1, or F-1 or FT-FB cells prepared as described above were placed in a 6-well dish at 10^5 cells per well, cultured at 5% CO2 and 37° C. for 1 day (24 hours), and stimulated by the addition of TGFβ (1 ng/mL), TNFα (1 ng/mL), EGF (2.5 or 10 ng/mL), or angiotensin II (1 μM or 10 μM) (n=3). […] The culture media were collected 24 hours after adding the reagents, and the concentrations of IL-6 were determined by the CLEIA method.

[1] = system: mixed tumor grafts of PC-3 cells and PrSC cells; experiment: In vivo effect on mixed tumor grafts of PC-3 cells and PrSC cells transplanted on mice
Description: (§1) The in vivo effect of the AIIR blocker was examined using the PC-3 human prostatic cancer cells with less expression of AT1 receptors (obtained from American Type Culture Collection, Rockville, Md., USA), and PrSC cells. PC-3 cells (5×10^6 cells) or a mixture of PC-3 and PrSC cells (2.5×10^6 cells each; a total of 5×10^6 cells) were injected subcutaneously in the back of male nude mice of 4 weeks old for forming tumors. Tumors having a diameter of about 5 mm were formed after one week. The above-described mice were divided into three groups: CV (5 mg/kg/day) administered group, CV (10 mg/kg/day) administered group, and non-administered group (Control) (n=4 for each group). The administered groups were orally administered with a specified dose of CV dissolved in drinking water every day from the first to the fifth week after the tumorigenic injection. The size of the tumor (heterograft) on each mouse was measured every week, and the volume was calculated using the formula: major axis×minor axis×minor axis/2. The volume was expressed as relative ratio to the volume in the first week as being 1. The results are shown in FIGS. 8 (PC-3 cells were transplanted) and 9 (a mixture of PC-3 and PrSC cells was transplanted).

PC-3 tumor grafts = experiment: In vivo effect on PC-3 tumor grafts transplanted on mice; settings: PC-3 cells transplanted; CV 5 or 10 mg/kg/day orally in drinking water, first to fifth week; male nude mice
Description: as §1

[2] = system: MAPK phosphorylation in PC-3 cells; experiment: MAPK phosphorylation in PC-3 cells cultured in PrSC conditioned media (Western blotting); format: cell-based, human; settings: 10% FCS-CM from PrSC with AIIR blocker 10 μM, no angiotensin II; lanes 5 and 6 vs lane 4; 10 minutes
Description: Stromal cells (PrSC) were cultured in a phenol red-free F12 medium containing 0.1% (W/V) BSA, to which angiotensin II (10 μM) was added alone or in combination with losartan (“Los”; 10 μM). The culture medium was collected 24 hours after the addition, and used as a conditioned medium (“0.1% BSA-CM”).
Stromal cells (PrSC) were cultured in a phenol red-free F12 medium containing 10% (V/V) FCS, to which CV (10 μM) or losartan (10 μM) was added. The culture medium was collected 24 hours after the addition, and used as a conditioned medium (“10% FCS-CM”) with no addition of angiotensin II. 10% FCS-CM with no additive was also prepared in the same manner.
3,000,000 PrSC cells were used for each of the above 10-1 and 10-2
PC3 cells (prostate cancer cells) were cultured for 24 hours in a phenol red-free F12 medium supplemented with 0.1% (W/V) BSA. Then the medium was replaced with one of the conditioned media prepared as described above, and the cells were collected 10 minutes later. Total cellular proteins were extracted as described below. Similar protocol was done in parallel for PC-3 cells without using any conditioned medium (“Control”).
The cells were washed twice with an ice-cold phosphate buffer (PBS), and lysed in 200 μL of an ice-cold cell lysis solution (lysis buffer; 20 mM of Tris (pH8.0), 137 mM of NaCl, 10% of glycerol, 0.1% of SDS, 0.5% of Nonidet P-40 (trade name), 100 mM of sodium fluoride, […] of sodium orthovanadate, 1 mM of EGTA, 2 mM of phenylmethylsulfonyl fluoride, […] of leupeptin, and […] of aprotinin). The mixture was centrifuged. Subsequently, the supernatant was collected.
The resulting protein sample was subjected to SDS-PAGE in the routine manner, and the MAPK phosphorylation was determined by Western blotting using an anti-phospho-MAP kinase antibody or an anti-MAP kinase antibody) (both were purchased from Cell Signaling Technology (Beverly, Mass.)) as the detecting antibody.
From the obtained results, the expression levels of pMAPK and MAPK bands were determined using NIH image software. On the basis of the results, the pMAPK/MAPK ratio in each lane was calculated, and then the ratio (“pMAPK ratio”) of the obtained value of each lane to that of the lane 1 (“Control”) was calculated by taking the value of Control as 1.

PrSC cells = experiment: IL-6 secretion by PrSC cells (CLEIA); format: cell-based, human; settings: 24 hours
Description: PrSC cells prepared in the same manner as Example 1, or F-1 or FT-FB cells prepared as described above were placed in a 6-well dish at 10^5 cells per well, cultured at 5% CO2 and 37° C. for 1 day (24 hours), and stimulated by the addition of TGFβ (1 ng/mL), TNFα (1 ng/mL), EGF (2.5 or 10 ng/mL), or angiotensin II (1 μM or 10 μM) (n=3). CV was added as the AIIR blocker to some wells 4 hours before adding the reagents. The culture media were collected 24 hours after adding the reagents, and the concentrations of IL-6 were determined by the CLEIA method.

CCOc1nc2cccc(C(=O)OC(C)OC(=O)OC3CCCCC3)c2n1Cc1ccc(-c2ccccc2-c2nnn[nH]2)cc1 (centres unmarked) [CV, 1-(cyclohexyloxycarbonyloxy)ethyl 2-ethoxy-1-[[2′-(1H-tetrazole-5-yl)biphenyl-4-yl]methyl]-1H-benzimidazole-7-carboxylate]
IL-6 secretion (F-1 cells): significantly suppressed
proliferation (relative tumor volume) vs Control ([1]; mixture of PC-3 and PrSC cells transplanted, CV 5 or 10 mg/kg/day orally in drinking water, first to fifth week, male nude mice): dose-dependently suppressed
relative tumor volume, difference from Control ([1]; mixture of PC-3 and PrSC cells, CV 10 mg/kg/day, fourth and fifth weeks (P<0.04 and P<0.03)): significant differences
proliferation (relative tumor volume) vs Control (PC-3 tumor grafts): suppression of proliferation was observed for the CV administered groups as compared to “Control”, but the effect was not so remarkable
MAPK phosphorylation in PC-3 cells [2]: suppressed
IL-6 secretion (PrSC cells; EGF (10 ng/mL)+CV (10 μM), P<0.05 vs EGF): significantly suppressed
IL-6 secretion (PrSC cells; TGFβ (1 ng/mL)+CV 10 μM, P<0.04 vs TGFβ): significantly suppressed
IL-6 secretion (PrSC cells; TNFα (1 ng/mL)+CV 10 μM, P<0.01 vs TNFα): significantly suppressed
